Target: tubulin (αβ-tubulin heterodimer)
Assay: competition with [3H]colchicine binding
Set-up: species or system Bos taurus

Ki: 12 to 15 µM
SMILES: COC(=O)C1=CC[C@@]23CC[C@@H]([C@@](C)(/C=C/C=C(\C)C(=O)O)OC2=O)[C@@]3(OC(C)=O)CC1 [PAB, pseudolaric acid B]

From paper PMC3402633 (2012)
